Reference: patent US7169424B2, “Mold inhibitor having reduced corrosiveness” (Kemin Industries, Inc., priority 2003, dated 2007)

Experiment: pH
Type: physicochemical
Conditions: free propionic acid, stated in the discussion

pH: less than 2
SMILES: CCC(=O)O [free propionic acid, propionic acid]
